Here are results for two molecules from patent publication US9801387B2, “Compositions comprising a biological control agent and an insecticide” (Bayer CropScience AG, priority 2012, dated 2017).

Holding throughout (assay type): in vivo
One test deals with Tetranychus urticae. As to the kind of experiment: Tetranychus urticae - spray test, OP-resistant. The conditions noted are these: mortality, French beans sprayed. On the procedure: (§1) For all examples the efficiencies of the compositions comprising at least one BCA and at least one specific insecticide has been determined by the “Colby-formula”: The expected efficacy of a given combination of two compounds is calculated as follows (see Colby, S. R., “Calculating Synergistic and antagonistic Responses of Herbicide Combinations”, Weeds 15, pp. 20-22, 1967): • If • X is the efficacy expressed in % mortality of the untreated control for test compound A at a concentration of m ppm respectively m g/ha, • Y is the efficacy expressed in % mortality of the untreated control for test compound B at a concentration of n ppm respectively n g/ha, • E is the efficacy expressed in % mortality of the untreated control using the mixture of A and B at m and n ppm respectively m and n g/ha, then is E=X+Y−(X×Y/100)
(§2) If the observed insecticidal efficacy of the combination is higher than the one calculated as “E”, then the combination of the two compounds is more than additive, i.e., there is a synergistic effect.
Tetranychus urticase—Spray Test, OP-resistant […]
(§3) After the specified period of time, mortality in % is determined. […] The mortality values determined thus are recalculated using the Colby-formula (see above).

The test system of another test is Phaedon cochleariae. As to the kind of experiment: Phaedon cochleariae - spray test. The settings on record: mortality of larvae, 100 g ai/ha. The protocol: as §1, §2
Phaedan Cochleariae—Spray Test […]
as §3

Another test has as its system Myzus persicae. As to the kind of experiment: Myzus persicae - spray test (MYZUPE). The conditions noted are these: mortality. The protocol:
as §1, §2
Myzus persicae—Spray Test (MYZUPE) […]
as §3

The structures appear in SMILES notation.

Turning to `Cc1cc(F)c(-n2nc(C(F)(F)F)nc2N)cc1[S+]([O-])CC(F)(F)F` (centres unmarked) [I277, 1-{2-fluoro-4-methyl-5-[(2,2,2-trifluorethyl)sulfinyl]phenyl}-3-(trifluoromethyl)-1H-1,2,4-triazol-5-amine], the “Efficacy in % after 2^d” value in the test on Tetranychus urticae (2 d, 100 g ai/ha) came to 0%. Moreover, the “Efficacy in % after 6^d” value in the test on Phaedon cochleariae is 0%; in the test on Myzus persicae (6 d, 100 g/ha) it was 0%.
In the case of `O=C1C=C(N(Cc2ccc(Cl)nc2)CC(F)F)CO1` [Flupyradifurone (I262), Flupyradifurone, reference compound], the “Efficacy in % after 6^d” value with Tetranychus urticae (6 d, 20 g ai/ha) turned out to be 0%. Further, the “Efficacy in % after 1^d” value with Myzus persicae (Chinese cabbage leaf-disks sprayed, 1 d, 4 g/ha) is given as 0%.
